Measured values taken from patent US11746116B2, “Antibiotic resistance breakers” (KING'S COLLEGE LONDON, priority 2017, dated 2023).
In brackets after ≈: the same amount, converted by molar mass. Several values for one entry are separate records, joined by “and”; a condition that tells them apart may be missing. Equal entries are not always repeated. Where two headings read alike, the source gives them in different places.

Assays:
[1] = Single dose pharmacokinetics study, intravenous route; details: 5 mg/kg
[2] = biological target: Safetyscreen44 off target panel (Homo sapiens, UniProt Q12809); assay: Safetyscreen44, potential off target toxicity (Table 27)
Safetyscreen44 off target panel, sequence (Q12809 whole entry): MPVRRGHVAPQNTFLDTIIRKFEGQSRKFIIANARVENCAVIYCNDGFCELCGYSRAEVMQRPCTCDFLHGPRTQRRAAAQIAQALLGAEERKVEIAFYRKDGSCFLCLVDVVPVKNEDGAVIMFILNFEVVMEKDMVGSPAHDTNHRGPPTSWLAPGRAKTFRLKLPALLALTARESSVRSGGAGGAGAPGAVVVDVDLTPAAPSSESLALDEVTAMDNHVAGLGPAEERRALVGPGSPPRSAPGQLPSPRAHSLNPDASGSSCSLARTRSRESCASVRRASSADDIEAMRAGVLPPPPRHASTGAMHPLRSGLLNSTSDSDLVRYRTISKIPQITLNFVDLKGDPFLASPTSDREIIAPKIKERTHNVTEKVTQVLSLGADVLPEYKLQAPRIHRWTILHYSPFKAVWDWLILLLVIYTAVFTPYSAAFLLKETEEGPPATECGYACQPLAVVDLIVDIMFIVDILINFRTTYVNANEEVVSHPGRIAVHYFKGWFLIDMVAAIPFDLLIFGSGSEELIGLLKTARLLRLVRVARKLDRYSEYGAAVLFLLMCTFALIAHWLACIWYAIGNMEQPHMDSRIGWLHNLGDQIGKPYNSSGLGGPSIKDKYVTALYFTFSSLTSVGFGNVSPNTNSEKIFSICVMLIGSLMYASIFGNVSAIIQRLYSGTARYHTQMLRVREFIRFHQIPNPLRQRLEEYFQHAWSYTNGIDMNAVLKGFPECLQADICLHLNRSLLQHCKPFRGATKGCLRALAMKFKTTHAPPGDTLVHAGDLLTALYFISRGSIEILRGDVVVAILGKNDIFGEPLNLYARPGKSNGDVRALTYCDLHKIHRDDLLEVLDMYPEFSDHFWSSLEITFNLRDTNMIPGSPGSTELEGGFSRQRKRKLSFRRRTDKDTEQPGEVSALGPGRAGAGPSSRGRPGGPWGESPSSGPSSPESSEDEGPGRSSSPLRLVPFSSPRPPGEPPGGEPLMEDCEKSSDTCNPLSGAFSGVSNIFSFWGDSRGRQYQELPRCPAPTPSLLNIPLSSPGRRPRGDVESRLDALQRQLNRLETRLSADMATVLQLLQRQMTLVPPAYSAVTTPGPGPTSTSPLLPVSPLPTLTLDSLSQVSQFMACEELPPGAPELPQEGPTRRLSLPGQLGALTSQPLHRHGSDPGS

[3] = mouse, in vivo
in vivo = details: male, CD-1 (ICR), mouse, iv, 5 mg/kg
[4] = system: Neisseria gonorrhoeae strains
[5] = male, CD-1 (ICR), mouse, in vivo, iv, 5 mg/kg
[6] = Male CD1 mouse, blood, Composite Mean
[7] = male, CD-1 (ICR), mouse, in vivo

In the case of `C[C@H]1COc2c(N3CC[C@@H](Nc4ncccn4)C3)c(F)cc3c(=O)c(C(=O)O)cn1c23` [KSN-82-L22], the “Blood CL” value [1, 6] is reported as 12.5 mL/min/kg, the Clast [1, 6] is reported as 286 ng/mL and the AUC [1, 7] is reported as 6420 ng·h/mL and 15.1 µM·h. The AUC(0-inf) [1, 7] was 15.7 µM·h, the Cmax [1, 7] was 9390 ng/mL and 22.1 µM and the MRT [1, 7] was 1.8 h. The half-life [1, 7] was 0.6 h, the “% inhibition, Potassium Channel hERG (human)-[3H] Dofetilide” value [2] was −0.2461% and the “Bioavailability Using AUCinf” value ([3]; male, CD-1 (ICR)) was 49-3%. The “Bioavailability Using AUCo.t” value ([3]; male, CD-1 (ICR)) was 32.0%, the AUGinf ([3]; male, CD-1 (ICR), po, 20 mg/kg) was 13203 ng·h/mL and the T½ ([3]; po, 20 mg/kg) was 5-1 h. The Vd (in vivo) was 1 to 4 L/kg, the MIC ([4]; ATCC49226, strain ATCC 49226, PEN-I TET-I) was under 0.0312 µg/mL and the MIC ([4]; ATCC700825, strain ATCC 700825) was 50 µg/mL (≈ 118 µM). For the same compound, the MIC ([4]; BAA1833, strain BAA-1833, PEN-I TET-I) was 50 µg/mL (≈ 118 µM), the MIC ([4]; BAA1838, strain BAA-1838) was 50 µg/mL (≈ 118 µM) and the MIC ([4]; CCUG57595, strain CCUG 57595) was 50 µg/mL (≈ 118 µM). It also gave an MIC ([4]; CCUG57596) of 0.125 µg/mL (≈ 0.294 µM), an MIC ([4]; CCUG57597, strain CCUG 57597, FEP-NS FOX-I CAZ-NS CIP-R OFX-R PEN-R TET-R) of 2 µg/mL (≈ 4.7 µM) and an MIC ([4]; CCUG57598, strain CCUG 57598, FOX-R CAZ-NS CRO-NS CIP-R OFX-R PEN-R TET-R) of 2 µg/mL (≈ 4.7 µM). The MIC ([4]; CCUG57599, strain CCUG 57599, CIP-R OFX-R PEN-R TET-R) was 0 to 5 µg/mL, the MIC ([4]; CCUG57600, strain CCUG 57600, CIP-R OFX-R PEN-R TET-R) was 1 µg/mL (≈ 2.35 µM) and the MIC ([4]; CCUG57601, strain CCUG 57601, PEN-R TET-R) was under 0.0312 µg/mL. It also gave an MIC ([4]; CCUG57602, strain CCUG 57602, PEN-I TET-I) of 0.0625 µg/mL (≈ 0.147 µM), an MIC ([4]; NCTC13817, strain NCTC 13817, PEN-R TET-I) of 0 to 5 µg/mL and an MIC ([4]; NCTC13818, strain NCTC 13818, CIP-R OFX-R PEN-R TET-R) of 2 µg/mL (≈ 4.7 µM). For the same compound, the MIC ([4]; NCTC13819, strain NCTC 13819, FEP-NS CAZ-NS CIP-R OFX-R PEN-R TET-I) was 2 µg/mL (≈ 4.7 µM), the MIC ([4]; NCTC13820, strain NCTC 13820, FEP-NS CFM-NS CAZ-NS CRO-NS CIP-R OFX-R PEN-R TET-R) was 2 µg/mL (≈ 4.7 µM) and the MIC ([4]; NCTC13821, strain NCTC 13821, FEP-NS CFM-NS CAZ-NS CRO-NS CIP-R PEN-I TET-I) was 2 µg/mL (≈ 4.7 µM). For the same compound, the MIC ([4]; NCTC13822, strain NCTC 13822, FEP-NS CFM-NS CAZ-NS CIP-R OFX-R PEN-R TET-I) was 2 µg/mL (≈ 4.7 µM), the MIC ([4]; strain 2007NG046, PEN-R CFM-R CPD-R CIP-R) was 4 µg/mL (≈ 9.4 µM) and the MIC ([4]; strain 2008NG057, PEN-R CFM-R CPD-R CIP-R) was 2 µg/mL (≈ 4.7 µM). It also gave an MIC ([4]; strain 2008NG097, PEN-R CFM-R CPD-R CIP-R) of 2 µg/mL (≈ 4.7 µM), an MIC ([4]; strain 2009NG514, PEN-R CPD-R CIP-R) of 2 µg/mL (≈ 4.7 µM) and an MIC ([4]; strain 2010NG122, PEN-R CFM-R CIP-R) of 2 µg/mL (≈ 4.7 µM). It also gave an MIC ([4]; strain FDA-CDC AR-BANK#0165, CIP-R PEN-I TET-R) of 2 µg/mL (≈ 4.7 µM), an MIC ([4]; strain FDA-CDC AR-BANK#0166, CIP-R PEN-I TET-R) of 2 µg/mL (≈ 4.7 µM) and an MIC ([4]; strain FDA-CDC AR-BANK#0167, CIP-S PEN-S TET-I) of under 0.0312 µg/mL. It also gave an MIC ([4]; strain FDA-CDC AR-BANK#0168, CIP-R PEN-I TET-R) of 1 µg/mL (≈ 2.35 µM), an MIC ([4]; strain FDA-CDC AR-BANK#0169, CIP-R PEN-I TET-R) of 2 µg/mL (≈ 4.7 µM) and an MIC ([4]; strain FDA-CDC AR-BANK#0170, CIP-R PEN-I TET-R) of 2 µg/mL (≈ 4.7 µM). The MIC ([4]; strain FDA-CDC AR-BANK#0171, CIP-R PEN-I TET-R) was 1 µg/mL (≈ 2.35 µM), the MIC ([4]; strain FDA-CDC AR-BANK#0172, CIP-R PEN-R TET-R) was 1 µg/mL (≈ 2.35 µM) and the MIC ([4]; strain FDA-CDC AR-BANK#0173, CIP-R PEN-R TET-R) was 2 µg/mL (≈ 4.7 µM). It also gave an MIC ([4]; strain FDA-CDC AR-BANK#0174, CIP-R PEN-R TET-R) of 2 µg/mL (≈ 4.7 µM), an MIC ([4]; strain FDA-CDC AR-BANK#0175, CIP-S PEN-I TET-I) of under 0.0312 µg/mL and an MIC ([4]; strain FDA-CDC AR-BANK#0176, CIP-R PEN-R TET-R) of 2 µg/mL (≈ 4.7 µM). The MIC ([4]; strain FDA-CDC AR-BANK#0177, CIP-S PEN-I TET-R) was under 0.0312 µg/mL, the MIC ([4]; strain FDA-CDC AR-BANK#0178, CIP-R PEN-R TET-R) was 2 µg/mL (≈ 4.7 µM) and the MIC ([4]; strain FDA-CDC AR-BANK#0179, CIP-S PEN-S TET-I) was under 0.0312 µg/mL. It also gave an MIC ([4]; strain FDA-CDC AR-BANK#0180, CIP-R PEN-I TET-R) of 2 µg/mL (≈ 4.7 µM), an MIC ([4]; strain FDA-CDC AR-BANK#0181, CIP-S PEN-I TET-R) of under 0.0312 µg/mL and an MIC ([4]; strain FDA-CDC AR-BANK#0182, CIP-R PEN-I TET-R) of 2 µg/mL (≈ 4.7 µM). It also gave an MIC ([4]; strain FDA-CDC AR-BANK#0183, CIP-R PEN-R TET-R) of 2 µg/mL (≈ 4.7 µM), an MIC ([4]; strain FDA-CDC AR-BANK#0184, CIP-R PEN-R TET-R) of 2 µg/mL (≈ 4.7 µM) and an MIC ([4]; strain FDA-CDC AR-BANK#0185, CIP-R PEN-I TET-R) of 2 µg/mL (≈ 4.7 µM). For the same compound, the MIC ([4]; strain FDA-CDC AR-BANK#0186, CIP-R PEN-R TET-R) was 1 µg/mL (≈ 2.35 µM), the MIC ([4]; strain FDA-CDC AR-BANK#0187, CIP-R PEN-I TET-R) was 2 µg/mL (≈ 4.7 µM) and the MIC ([4]; strain FDA-CDC AR-BANK#0188, CIP-R PEN-I TET-R) was 1 µg/mL (≈ 2.35 µM). It also gave an MIC ([4]; strain FDA-CDC AR-BANK#0189, CIP-R PEN-R TET-R) of 2 µg/mL (≈ 4.7 µM), an MIC ([4]; strain FDA-CDC AR-BANK#0190, CIP-R PEN-R TET-R) of 2 µg/mL (≈ 4.7 µM) and an MIC ([4]; strain FDA-CDC AR-BANK#0191, CIP-R PEN-R TET-R) of 2 µg/mL (≈ 4.7 µM). It also gave an MIC ([4]; strain FDA-CDC AR-BANK#0192, CIP-R PEN-R TET-R) of 2 µg/mL (≈ 4.7 µM), an MIC ([4]; strain FDA-CDC AR-BANK#0193, CIP-S PEN-R TET-R) of under 0.0312 µg/mL and an MIC ([4]; strain FDA-CDC AR-BANK#0194, CRO-NS CIP-S PEN-I TET-R) of under 0.0312 µg/mL. The MIC ([4]; strain FDA-CDC AR-BANK#0195, CIP-R PEN-I TET-R) was 2 µg/mL (≈ 4.7 µM), the MIC ([4]; strain FDA-CDC AR-BANK#0196, CIP-R PEN-R TET-R) was 2 µg/mL (≈ 4.7 µM) and the MIC ([4]; strain FDA-CDC AR-BANK#0197, CIP-R PEN-I TET-I) was 2 µg/mL (≈ 4.7 µM). For the same compound, the MIC ([4]; strain FDA-CDC AR-BANK#0198, CIP-R PEN-R TET-R) was 2 µg/mL (≈ 4.7 µM), the MIC ([4]; strain FDA-CDC AR-BANK#0199, CIP-S PEN-R TET-R) was under 0.0312 µg/mL and the MIC ([4]; strain FDA-CDC AR-BANK#0200, CIP-R PEN-R TET-R) was 2 µg/mL (≈ 4.7 µM). It also gave an MIC ([4]; strain FDA-CDC AR-BANK#0201, CIP-R PEN-R TET-R) of 2 µg/mL (≈ 4.7 µM), an MIC ([4]; strain FDA-CDC AR-BANK#0202, CIP-S PEN-S TET-I) of under 0.0312 µg/mL and an MIC ([4]; strain FDA-CDC AR-BANK#0203, CIP-R PEN-R TET-R) of 2 µg/mL (≈ 4.7 µM). The MIC ([4]; strain FDA-CDC AR-BANK#0204, CIP-R PEN-I TET-R) was 2 µg/mL (≈ 4.7 µM), the MIC ([4]; strain FDA-CDC AR-BANK#0205, CIP-R PEN-R TET-R) was 2 µg/mL (≈ 4.7 µM) and the MIC ([4]; strain FDA-CDC AR-BANK#0206, CIP-R PEN-R TET-R) was 2 µg/mL (≈ 4.7 µM). For the same compound, the MIC ([4]; strain FDA-CDC AR-BANK#0207, CIP-R PEN-R TET-R) was 2 µg/mL (≈ 4.7 µM), the MIC ([4]; strain FDA-CDC AR-BANK#0208, CIP-R PEN-I TET-R) was 2 µg/mL (≈ 4.7 µM) and the MIC ([4]; strain FDA-CDC AR-BANK#0209, CIP-R PEN-I TET-R) was 2 µg/mL (≈ 4.7 µM). For the same compound, the MIC ([4]; strain FDA-CDC AR-BANK#0210, CIP-R PEN-I TET-I) was 2 µg/mL (≈ 4.7 µM), the MIC ([4]; strain FDA-CDC AR-BANK#0211, CIP-R PEN-R TET-R) was 2 µg/mL (≈ 4.7 µM) and the MIC ([4]; strain FDA-CDC AR-BANK#0212, CIP-R PEN-I TET-R) was 2 µg/mL (≈ 4.7 µM). It also gave an MIC ([4]; strain FDA-CDC AR-BANK#0213, CIP-R PEN-I TET-I) of 1 µg/mL (≈ 2.35 µM), an MIC ([4]; strain FDA-CDC AR-BANK#0214, CIP-R PEN-R TET-R) of 2 µg/mL (≈ 4.7 µM) and an MIC ([4]; strain TCDC-NG08107, PEN-R CFM-R CPD-R CIP-R) of 2 µg/mL (≈ 4.7 µM). The AUGinf [5] was 6691 ng·h/mL and the “Liver Blood Flow” value [5] was 10.4%.
